Source: patent publication US5786348A, “Methods for preparation and use of 1α,24(S)-dihydroxy vitamin D2” (priority 1995, dated 1998)
Where two headings read alike, the source gives them in different places.

Assays:
vitamin D receptor (VDR) = molecular target: T1, vitamin D receptor (VDR) (Homo sapiens, UniProt P11473); assay: Vitamin D-dependent transcriptional activation: growth hormone production in COS-1 cells co-transfected with VDR plasmid and VDRE-GH reporter; type: cell-based; conditions: for Total GH Production: averages of duplicate determinations
T1 sequence (P11473 1-427): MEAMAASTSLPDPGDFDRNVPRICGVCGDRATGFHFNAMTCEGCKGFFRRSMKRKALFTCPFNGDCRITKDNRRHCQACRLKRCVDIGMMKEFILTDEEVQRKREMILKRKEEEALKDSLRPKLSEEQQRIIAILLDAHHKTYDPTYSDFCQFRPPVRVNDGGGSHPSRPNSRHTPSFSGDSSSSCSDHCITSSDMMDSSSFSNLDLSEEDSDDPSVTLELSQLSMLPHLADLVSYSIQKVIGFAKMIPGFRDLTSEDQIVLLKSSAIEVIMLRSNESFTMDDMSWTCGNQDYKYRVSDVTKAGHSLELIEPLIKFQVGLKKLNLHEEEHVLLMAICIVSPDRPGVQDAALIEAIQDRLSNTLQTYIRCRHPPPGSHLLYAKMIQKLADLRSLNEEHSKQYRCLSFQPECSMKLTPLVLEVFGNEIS
Procedure: The biological activity in vitro of chemically synthesized 1α,24(S)-(OH)2 D2 and 1α,24(R)-(OH)2 D2 was measured using a vitamin D-dependent transcriptional activation model system in which a vitamin D receptor (VDR)-expressing plasmid pSG5-hVDR1/3and a plasmid p(CT4)^4 TKGH containing a Growth Hormone (GH)-gene, under the control of a vitamin D-responsive element (VDRE) were co-transfected into Green monkey kidney, COS-1 cells. DNA's for these two vectors were supplied by Dr. Mark Haussler, Department of Biochemistry, University of Arizona, Tucson, Ariz.
Transfected cells were incubated with vitamin D metabolites and growth hormone production was measured.

[1] = tested on: 1,25-(OH)2 D3 receptor site; conditions: Ishizuka et al., Steroids 1981, 1982; cited from earlier work
bovine thymus VDR = molecular target: T2, bovine thymus VDR (Bos taurus, UniProt Q28037); assay: Radioreceptor assay with bovine thymus VDR (Incstar), displacement of 3H-1α,25-(OH)2 D3; type: binding; conditions: bovine thymus VDR radioreceptor assay; read-out: Half-maximal binding (converted)
T2 construct: commercially available kit of bovine thymus VDR; purchased Incstar (Stillwater, Minn.); host or cells: bovine thymus
T2 sequence (Q28037 1-426): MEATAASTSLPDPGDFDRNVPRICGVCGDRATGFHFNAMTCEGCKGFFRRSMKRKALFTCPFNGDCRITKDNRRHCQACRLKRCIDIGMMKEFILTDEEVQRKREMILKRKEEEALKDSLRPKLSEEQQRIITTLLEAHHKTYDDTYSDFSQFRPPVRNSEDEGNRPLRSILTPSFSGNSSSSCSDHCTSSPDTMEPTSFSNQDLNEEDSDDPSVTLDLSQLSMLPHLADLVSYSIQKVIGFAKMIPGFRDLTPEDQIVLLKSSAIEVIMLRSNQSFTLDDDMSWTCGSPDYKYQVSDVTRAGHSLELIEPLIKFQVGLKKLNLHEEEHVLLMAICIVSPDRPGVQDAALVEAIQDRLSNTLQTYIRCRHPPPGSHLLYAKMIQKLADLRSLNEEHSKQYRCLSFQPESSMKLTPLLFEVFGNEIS
Text: Purified 1α,24(S)-(OH)2 D2 was quantitated by photodiode array spectrophotometry and assayed in the radioreceptor assay.
The purified 1α,24(R)-(OH)2 D2 and 1α,24(S)-(OH)2 D2 epimers were quantitated by ultraviolet spectroscopy. The concentration of 1α,24(R)-(OH)2 D2 required to produce the same displacement of ^3 H-1α,25-(OH)2 D3 tracer from the receptor was 20 to 30 times that required for 1α,24(S)-(OH)2 D2, as shown in FIG. 4.

[2] = human, in vivo; cited from earlier work
Hep 3B cells = assay: Metabolism of 1α-OH-D2 in Hep 3B human hepatoma cells at rising substrate concentration; type: in vitro ADME; conditions: Experiment 2, photodiode array spectrophotometry
Procedure: Substantially pure 1α-(OH)D2 was obtained from Bone Care International, Inc. of Madison, Wis. The 1α-(OH)D2 was cultured for 48 hours with cells derived from a human hepatoma, Hep 3B, in medium devoid of fetal calf serum using known methods in the art.
Lipid extracts of the combined medium and cells were generated by known methods in the art and were subjected to high pressure liquid chromatography (HPLC) on Zorbax-S1L developed with hexane/isopropanol/methanol (91:7:2). The putative 1α,24(?)-(OH)2 D2 metabolite eluted between the parent 1α-(OH)D2 and standard 1α,25-(OH)2 D2 (also obtained from Bone Care International, Inc. of Madison, Wis.). (As used herein, the term "1α,24(?)-(OH)2 D2 " is meant to indicate that the epimeric form has not been identified.) The 1α,24(?)-(OH)2 D2 was further purified by this HPLC system before the metabolite's identification was undertaken using mass spectrometry analysis.
Hep 3B cells were incubated with 1α-OH-D2, as described above, at final concentrations of 1, 10, or 100 nM (Experiment 1), and 1 or 10 μM (Experiment 2) and 1α,24(S)-(OH)2 D2 was extracted and purified. The 1α,24(S)-(OH)2 D2 and 1α,25-(OH)2 D2 metabolites were quantitated by recovered radiolabel (Experiment 1) or by photodiode array spectrophotometry (Experiment 2).

[3] = Blood metabolite levels in osteoporotic women given 1α-OH-D2; type: in vivo, human; conditions: one day after a single 2 μg dose
Procedure: An increase in the production of 1α,24(S)-(OH)2 D2 relative to 1α,25-(OH)2 D2 has also been observed by the present inventors in human females who received 1α-OH-D2 as part of an investigation of that drug for the treatment of osteoporosis. Following either a single dose of 2 μg of 1α-OH-D2 or daily doses of 8 μg/day for one week, blood was collected and analyzed for the metabolites 1α,24(S)-(OH)2 D2 and 1α,25-(OH)2 D2. Lipid was extracted from the blood, and the metabolites were purified by HPLC using standard methods and quantified with the radioreceptor assay produced by Incstar (Stillwater, Minn.). One day after a single 2 μg dose, the level of 1α,24(S)-(OH)2 D2 was undetectable with the 1α,25-(OH)2 D2 level being approximately 11 pg/ml. In contrast, one day following the last dose of 8 μg, the level of 1α,24(S)-(OH)2 D2 averaged 9 pg/ml with the 1α,25-(OH)2 D2 level averaging 30 pg/ml.

[4] = type: in vivo, rat
Procedure: Vitamin D2 or 24-OH-D2 was administered (either oral or intraperitoneal supplementation) to vitamin D-deficient rats. Lipid extracts of the plasma were prepared and the metabolites purified by the method of Horst et al. (Horst, R. L., Koszewski, N. J. and Reinhardt, T. A., Biochem., 29:578-82 (1990)) described below for synthesyzing standard biological 1α,24-(OH)2 D2.
Standard biological 1α,24-(OH)2 D2 was synthesized in vitro from 24-OH-D2 by incubating 10 μg of 24-OH-D2 in flask containing 5 ml of 20% kidney homogenates made from vitamin D-deficient chicks. The product of this reaction was isolated by HPLC and identified by mass spectrometry.

[5] = inducer molar concentration 10^-7
[6] = inducer molar concentration 10^-8
[7] = inducer molar concentration 10^-9
[8] = inducer molar concentration 10^-5
[9] = inducer molar concentration 10^-6

SMILES: C=C1/C(=C\C=C2/CCC[C@]3(C)[C@@H]([C@H](C)/C=C/[C@](C)(O)C(C)C)CC[C@@H]23)C[C@@H](O)C[C@@H]1O [1α,24(R)-(OH)2 D2, 1α,24(R)-dihydroxy vitamin D2]
- Net vitamin D-inducible GH-production (vitamin D receptor (VDR); [5]): 1256 ng/mL
- Total GH Production (vitamin D receptor (VDR); [5]): 1300 ng/mL
- Net vitamin D-inducible GH-production (vitamin D receptor (VDR); [6]): 1056 ng/mL
- Total GH Production (vitamin D receptor (VDR); [6]): 1100 ng/mL
- Net vitamin D-inducible GH-production (vitamin D receptor (VDR); [7]): 36 ng/mL
- Total GH Production (vitamin D receptor (VDR); [7]): 80 ng/mL

SMILES: C=C1/C(=C\C=C2/CCC[C@]3(C)[C@@H]([C@H](C)CC[C@@H](O)C(C)C)CC[C@@H]23)C[C@@H](O)C[C@@H]1O [1α,24(R)-(OH)2 D3, 1α,24(R)-dihydroxyvitamin D3]
- Binding of the 1,25-(OH)2 D3 receptor site relative to 1,25-(OH)2 D3 [1]: more tightly

SMILES: C=C1/C(=C\C=C2/CCC[C@]3(C)[C@@H]([C@H](C)/C=C/[C@H](C)C(C)(C)O)CC[C@@H]23)C[C@@H](O)C[C@@H]1O [1α,25-(OH)2D2, 1α,25-dihydroxy vitamin D2, reference compound]
- IC50 (bovine thymus VDR): 0.187 nM

SMILES: C=C1/C(=C\C=C2/CCC[C@]3(C)[C@@H]([C@H](C)CCCC(C)C)CC[C@@H]23)C[C@@H](O)C[C@@H]1O [1α-(OH)D3, 1α-hydroxy vitamin D3]
- Safety of dosage levels of 2.0 μg/day or greater [2]: not safely obtained

SMILES: C=C1/C(=C\C=C2/CCC[C@]3(C)[C@@H]([C@H](C)/C=C/[C@H](C)C(C)C)CC[C@@H]23)C[C@@H](O)C[C@@H]1O [1α-OH-D2, 1α-hydroxy vitamin D2]
- Rate of Production of 1α,24(S)-(OH)2 D2 (Hep 3B cells; substrate concentration 1 μM): 4.9 pmol per 10^6 cells/day
- Rate of Production of 1α,24(S)-(OH)2 D2 (Hep 3B cells; substrate concentration 10 μM): 59 pmol per 10^6 cells/day
- Rate of Production of 1α,25-(OH)2 D2 (Hep 3B cells; substrate concentration 10 μM): 7.4 pmol per 10^6 cells/day
- Blood level of metabolite 1α,24(S)-(OH)2 D2 [3]: undetectable

SMILES: C=C1CC[C@H](O)C/C1=C/C=C1\CCC[C@]2(C)[C@@H]([C@H](C)/C=C/C(C)(O)C(C)C)CC[C@@H]12 (stereo partly shown) [24-OH-D2, 24-hydroxyvitamin D2]
- Metabolite isolated from plasma lipid extracts ([4]; rat, in vivo): co-migrated on HPLC with the standard 1α,24-(OH)2 D2

SMILES: C=C1CC[C@H](O)C/C1=C/C=C1\CCC[C@]2(C)[C@@H]([C@H](C)CCCC(C)(C)O)CC[C@@H]12 [25-OH-D3, 25-hydroxy vitamin D3, reference compound]
- Net vitamin D-inducible GH-production (vitamin D receptor (VDR); [8]): 731 ng/mL
- Total GH Production (vitamin D receptor (VDR); [8]): 775 ng/mL
- Net vitamin D-inducible GH-production (vitamin D receptor (VDR); [9]): 1056 ng/mL
- Total GH Production (vitamin D receptor (VDR); [9]): 1100 ng/mL
- Net vitamin D-inducible GH-production (vitamin D receptor (VDR); [5]): 201 ng/mL
- Total GH Production (vitamin D receptor (VDR); [5]): 245 ng/mL

SMILES: C=C1CC[C@H](O)C/C1=C/C=C1\CCC[C@]2(C)[C@@H]([C@H](C)/C=C/[C@H](C)C(C)C)CC[C@@H]12 [vitamin D2, Vitamin D2]
- Metabolite isolated from plasma lipid extracts ([4]; vitamin D-deficient rats, HPLC against standard biological 1α,24-(OH)2 D2): co-migrated on HPLC with the standard 1α,24-(OH)2 D2

SMILES: C=C1CC[C@H](O)C/C1=C/C=C1\CCC[C@]2(C)[C@@H]([C@H](C)CCCC(C)C)CC[C@@H]12 [vitamin D3]
- 24-OH-D3 in plasma ([4]; comparable vitamin D-deficient rats): no detectable
